Measurements reported in patent US8912186B2, “Allosteric protein kinase modulators” (Universitaet des Saarlandes, priority 2008, dated 2014).

Experiments:
Assay type in all cases: biochemical
[1] = target: T1, PDK1 (Homo sapiens, UniProt O15530); assay: cell-free kinase activity assay (ATPgamma[32P], T308tide substrate); conditions: for AC50 / AC50 PDK1 (μM): concentration of the compound required to activate half maximally; for AC50 / max. activation of PDK1 (fold) / AC50 PDK1 (μM): n.e.: no effect; for max. activation of PDK1 (fold): maximum activation achievable, compared to the basal activity of PDK1
T1 construct: GST
T1 sequence (O15530 1-556): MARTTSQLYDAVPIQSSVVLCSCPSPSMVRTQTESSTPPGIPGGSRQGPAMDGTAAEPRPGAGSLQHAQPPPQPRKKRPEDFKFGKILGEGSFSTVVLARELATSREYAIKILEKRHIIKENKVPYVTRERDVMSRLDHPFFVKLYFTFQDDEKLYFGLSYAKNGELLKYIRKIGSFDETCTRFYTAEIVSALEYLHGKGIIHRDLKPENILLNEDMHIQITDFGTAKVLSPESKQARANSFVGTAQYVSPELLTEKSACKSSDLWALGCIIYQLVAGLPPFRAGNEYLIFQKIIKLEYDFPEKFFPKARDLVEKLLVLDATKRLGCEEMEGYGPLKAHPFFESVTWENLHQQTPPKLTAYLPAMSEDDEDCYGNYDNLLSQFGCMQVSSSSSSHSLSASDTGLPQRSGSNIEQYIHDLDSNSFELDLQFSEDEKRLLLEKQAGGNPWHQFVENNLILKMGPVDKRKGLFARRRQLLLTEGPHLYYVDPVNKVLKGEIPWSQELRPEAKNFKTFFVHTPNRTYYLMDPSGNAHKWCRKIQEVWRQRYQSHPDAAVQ
Description: Principle of the cell-free kinase activity assay: In general, the activity of the compounds as protein kinase inhibitors or activators may be assayed in vitro (cell free assay is meant here), in vivo or in a cell line. In vitro assays include assays that determine inhibition or activation of either the phosphorylation activity or ATPase activity of the activated protein kinase. Alternate in vitro assays quantitate the ability of the inhibitor to bind to the protein kinase. Compound binding may be measured by radiolabelling the compound prior to binding, isolating the inhibitor or activator/protein kinase complex and determining the amount of radiolabel bound. Alternatively, inhibitor or activator binding may be determined by running a competition experiment where new compounds are incubated with the protein kinase bound to known radioligands. Newer methods comprise fluorescence polarisation assays and surface plasmon resonance dependent techniques. […] The activity and modulation of activity is measured using a standard ATPgamma[^32P] assay as described earlier. […] The concentration of T308tide is 1 mM and the amount of PDK1 used is 200 ng. Reactions are carried out at room temperature. Reaction is started by addition of ATP-Mg mix and stopped with phosphoric acid after 30 min. Stopped reactions were spotted on to phosphocellulose paper (P81, Whatman) and washed. After drying, the radioactivity associated to the band was quantified.

[2] = target: PKBβ (Homo sapiens, UniProt P31751); assay: cell-free kinase activity assay; conditions: DMSO control set 100%
Chain of PKBβ (P31751 whole entry, species assumed): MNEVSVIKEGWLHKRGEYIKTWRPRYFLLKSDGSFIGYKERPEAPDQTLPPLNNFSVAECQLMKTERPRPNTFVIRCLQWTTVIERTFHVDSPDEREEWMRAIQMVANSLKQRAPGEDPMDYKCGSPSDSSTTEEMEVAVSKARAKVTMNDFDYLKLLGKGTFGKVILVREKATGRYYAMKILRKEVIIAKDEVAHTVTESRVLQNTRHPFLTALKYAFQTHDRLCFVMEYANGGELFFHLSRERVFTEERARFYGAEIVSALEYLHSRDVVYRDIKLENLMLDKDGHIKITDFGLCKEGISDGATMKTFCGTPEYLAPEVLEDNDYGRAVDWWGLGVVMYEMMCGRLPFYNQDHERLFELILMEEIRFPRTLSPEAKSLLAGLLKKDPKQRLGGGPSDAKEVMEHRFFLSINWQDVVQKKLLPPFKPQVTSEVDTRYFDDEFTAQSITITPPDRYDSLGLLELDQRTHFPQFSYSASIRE

[3] = target: S6K (Homo sapiens, UniProt P23443); assay: cell-free kinase activity assay; conditions: DMSO control set 100%
Chain of S6K (P23443 whole entry): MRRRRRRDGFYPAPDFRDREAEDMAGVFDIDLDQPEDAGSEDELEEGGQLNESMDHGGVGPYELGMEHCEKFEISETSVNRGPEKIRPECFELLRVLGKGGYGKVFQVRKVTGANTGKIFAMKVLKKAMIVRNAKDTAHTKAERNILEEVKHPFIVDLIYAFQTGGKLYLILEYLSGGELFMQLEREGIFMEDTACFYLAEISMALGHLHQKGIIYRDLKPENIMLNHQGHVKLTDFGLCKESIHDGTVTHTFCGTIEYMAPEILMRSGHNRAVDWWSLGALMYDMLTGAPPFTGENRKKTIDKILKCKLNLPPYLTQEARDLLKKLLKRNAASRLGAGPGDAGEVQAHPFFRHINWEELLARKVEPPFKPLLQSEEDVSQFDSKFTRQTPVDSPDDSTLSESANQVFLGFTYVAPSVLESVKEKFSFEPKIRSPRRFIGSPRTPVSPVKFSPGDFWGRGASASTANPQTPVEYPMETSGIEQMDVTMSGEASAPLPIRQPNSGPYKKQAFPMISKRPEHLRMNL

[4] = target: T2, SGK (Homo sapiens, UniProt O00141); assay: cell-free kinase activity assay; conditions: DMSO control set 100%
T2 sequence (O00141 1-431): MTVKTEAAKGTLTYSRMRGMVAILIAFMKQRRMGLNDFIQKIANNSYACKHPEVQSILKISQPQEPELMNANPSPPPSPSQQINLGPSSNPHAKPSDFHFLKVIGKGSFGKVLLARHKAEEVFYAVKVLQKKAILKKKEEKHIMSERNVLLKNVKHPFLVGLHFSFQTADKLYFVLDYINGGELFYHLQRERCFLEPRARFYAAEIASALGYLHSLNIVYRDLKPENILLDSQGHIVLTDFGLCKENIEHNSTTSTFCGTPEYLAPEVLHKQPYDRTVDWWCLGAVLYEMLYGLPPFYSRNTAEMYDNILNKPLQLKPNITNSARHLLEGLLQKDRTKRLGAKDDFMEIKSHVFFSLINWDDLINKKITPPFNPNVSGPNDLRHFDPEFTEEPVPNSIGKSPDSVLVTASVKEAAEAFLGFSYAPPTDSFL

[5] = target: PRK2 (Homo sapiens, UniProt Q16513); assay: cell-free kinase activity assay; conditions: DMSO control set 100%
Chain of PRK2 (Q16513 whole entry, species assumed): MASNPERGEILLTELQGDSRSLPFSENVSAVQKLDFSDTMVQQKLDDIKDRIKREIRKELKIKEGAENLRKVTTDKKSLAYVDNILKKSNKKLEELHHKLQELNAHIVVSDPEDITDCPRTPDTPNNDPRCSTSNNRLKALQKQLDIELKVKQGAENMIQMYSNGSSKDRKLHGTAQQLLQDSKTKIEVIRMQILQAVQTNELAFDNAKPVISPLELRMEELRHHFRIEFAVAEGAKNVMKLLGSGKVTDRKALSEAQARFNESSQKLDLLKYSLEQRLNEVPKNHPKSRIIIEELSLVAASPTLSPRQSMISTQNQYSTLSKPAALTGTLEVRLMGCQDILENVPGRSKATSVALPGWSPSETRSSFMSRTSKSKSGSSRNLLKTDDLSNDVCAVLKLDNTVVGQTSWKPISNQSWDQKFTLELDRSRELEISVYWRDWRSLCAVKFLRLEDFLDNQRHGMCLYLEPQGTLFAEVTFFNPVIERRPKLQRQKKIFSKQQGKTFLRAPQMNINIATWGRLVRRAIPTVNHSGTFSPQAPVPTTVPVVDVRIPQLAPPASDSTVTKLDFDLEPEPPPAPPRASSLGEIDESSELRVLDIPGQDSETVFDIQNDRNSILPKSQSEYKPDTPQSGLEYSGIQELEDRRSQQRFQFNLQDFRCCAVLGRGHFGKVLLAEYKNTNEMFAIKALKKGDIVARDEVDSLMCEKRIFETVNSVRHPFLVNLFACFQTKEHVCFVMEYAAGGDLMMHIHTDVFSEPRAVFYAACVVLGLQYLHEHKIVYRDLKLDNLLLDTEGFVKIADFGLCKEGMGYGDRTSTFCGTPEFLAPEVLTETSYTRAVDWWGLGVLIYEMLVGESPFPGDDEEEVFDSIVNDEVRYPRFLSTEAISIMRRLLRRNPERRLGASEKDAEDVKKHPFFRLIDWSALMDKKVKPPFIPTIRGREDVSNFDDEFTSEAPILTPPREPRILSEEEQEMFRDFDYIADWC

[6] = target: PKA (Homo sapiens, UniProt P17612); assay: cell-free kinase activity assay; conditions: DMSO control set 100%

AC50 [1] | max. activation of PDK1 (fold) [1] | Structure (SMILES) | other results
22.8 µM | 3.0 fold | O=C(O)/C=C(/COc1ccc(Cl)cc1)c1ccccc1 [PS 97, (E)-4-(4-Chlorophenoxy)-3-phenylbut-2-enoic acid] | –
19 µM | 2.9 fold | O=C(O)CC(c1ccccc1)c1cc2cc(Cl)ccc2o1 (centres unmarked) [PS 124, 3-(5-Chloro-2-benzofuranyl)-3-phenylpropanoic acid] | –
> 60 µM | 2.7 fold | O=C(O)/C=C(\COc1ccc(Cl)cc1)c1ccccc1 [PS 95, (Z)-4-(4-Chlorophenoxy)-3-phenylbut-2-enoic acid] | –
13.2 µM | 3.1 fold | O=C(O)/C=C(\c1ccccc1)c1cc2cc(Cl)ccc2s1 [PS 119, (E)-3-(5-Chloro-2-benzothiophenyl)-3-phenylacrylic acid] | –
31.6 µM | 3.2 fold | O=C(O)C=C(c1ccccc1)c1cc2cc(Cl)ccc2o1 (mixture of isomers) [PS 101, (E/Z)-3-(5-Chloro-2-benzofuranyl)-3-phenylacrylic acid] | –
29.1 µM | 2.7 fold | Cc1ccc2oc(C(CC(=O)O)c3ccccc3)cc2c1 (centres unmarked) [PS 120, 3-(5-Methyl-2-benzofuranyl)-3-phenylpropanoic acid] | –
> 100 µM | 2 fold | O=C(O)/C=C(\CCc1cccc(Cl)c1)c1ccccc1 [PS 88, (E)-5-(3-Chlorophenyl)-3-phenylpent-2-enoic acid] | –
– | n.e. | O=C(O)/C=C(\CCc1ccc(Cl)cc1Cl)c1ccccc1 [PS 135, (E)-5-(2,4-Dichlorophenyl)-3-phenylpent-2-enoic acid] | AC50 PDK1 (μM) [1]: n.e.
41.3 µM | 3.1 fold | Cc1ccc2oc(C(=CC(=O)O)c3ccccc3)cc2c1 (mixture of isomers) [PS 103, (E/Z)-3-(5-Methyl-2-benzofuranyl)-3-phenylacrylic acid] | –
9.4 µM | 2.2 fold | O=C(O)/C=C(/CCc1ccc(Cl)cc1Cl)c1ccccc1 [PS-T9, (Z)-5-(2,4-Dichlorophenyl)-3-phenylpent-2-enoic acid] | –

The next lines start with the compound.

Structure (SMILES) | AC50 [1] | max. activation of PDK1 (fold) [1] | other results
O=C(O)/C=C(\CCc1ccc(Cl)c(Cl)c1)c1ccccc1 [PS 131, (E)-5-(3,4-Dichlorophenyl)-3-phenylpent-2-enoic acid] | > 100 µM | 2 fold | –
CCc1ccc(CC/C(=C/C(=O)O)c2ccccc2)cc1 [PS 130, (Z)-5-(4-Ethylphenyl)-3-phenylpent-2-enoic acid] | > 30 µM | 1.4 fold | –
O=C(O)/C=C(/CCc1ccc2ccccc2c1)c1ccccc1 [PS-T4, (Z)-5-(2-Naphthalenyl)-3-phenylpent-2-enoic acid] | 4 µM | more than 4 fold | max. activation of PDK1 (fold) ([1]; listed as T4): 4.2 fold
O=C(O)/C=C(\CCc1ccc(Br)cc1)c1ccccc1 [PS 137, (E)-5-(4-Bromophenyl)-3-phenylpent-2-enoic acid] | > 100 µM | 2 fold | –
O=C(O)/C=C(\CCc1c[nH]c2ccccc12)c1ccccc1 [PS 158, (E)-5-(1H-Indol-3-yl)-3-phenylpent-2-enoic acid] | 34.6 µM | 2.9 fold | –
O=C(O)/C=C(\CCc1ccc(C(F)(F)F)cc1)c1ccccc1 [PS 140, (E)-3-Phenyl-5-[4-(trifluoromethyl)phenyl]pent-2-enoic acid] | – | n.e. | AC50 PDK1 (μM) [1]: n.e.
O=C(O)/C=C(\CCc1ccc(F)cc1)c1ccccc1 [PS 136, (E)-5-(4-Fluorophenyl)-3-phenylpent-2-enoic acid] | > 100 µM | 1.3 fold | –
O=C(O)CC(Cc1nc2c(Cl)cc(Cl)cc2[nH]1)c1ccc(Cl)cc1 (centres unmarked) [PS 171, 4-(5,7-Dichloro-2-benzimidazolyl)-3-(4-chlorophenyl)butanoic acid] | – | – | percent of catalytic activity of the Kinase in the presence of compound as compared to the solvent control (DMSO): PKBβ ([2]; 50 μM compound): no effect; remaining activity at 200 µM ([2]; 200 μM compound, read-out: percent of catalytic activity of the Kinase in the presence of compound as compared to the solvent control (DMSO): PKBβ): ~70%; percent of catalytic activity of the Kinase in the presence of compound as compared to the solvent control (DMSO): S6K ([3]; 50 μM compound): weak inhib.; remaining activity at 200 µM ([3]; 200 μM compound, read-out: percent of catalytic activity of the Kinase in the presence of compound as compared to the solvent control (DMSO): S6K): ~50%; percent of catalytic activity of the Kinase in the presence of compound as compared to the solvent control (DMSO): SGK ([4]; 50 μM compound): no effect; remaining activity at 200 µM ([4]; 200 μM compound, read-out: percent of catalytic activity of the Kinase in the presence of compound as compared to the solvent control (DMSO): SGK): ~70%; percent of catalytic activity of the Kinase in the presence of compound as compared to the solvent control (DMSO): PRK2 ([5]; 50 μM compound): no effect; percent of catalytic activity of the Kinase in the presence of compound as compared to the solvent control (DMSO): PRK2 ([5]; 200 μM compound): no effect; activity at 200 µM ([1]; 200 μM compound, DMSO control set 100%, read-out: percent of catalytic activity of the Kinase in the presence of compound as compared to the solvent control (DMSO): PDK1): ~200%; percent of catalytic activity of the Kinase in the presence of compound as compared to the solvent control (DMSO): PKA ([6]; 50 μM compound): no effect; remaining activity at 200 µM ([6]; 200 μM compound, read-out: percent of catalytic activity of the Kinase in the presence of compound as compared to the solvent control (DMSO): PKA): 80 to 90%
CCc1ccc(CC/C(=C\C(=O)O)c2ccccc2)cc1 [PS 129, (E)-5-(4-Ethylphenyl)-3-phenylpent-2-enoic acid] | > 100 µM | 1.5 fold | –
O=C(O)/C=C(\CCc1ccc2ccccc2c1)c1ccccc1 [PS 138, (E)-5-(2-Naphthalenyl)-3-phenylpent-2-enoic acid] | 27.1 µM | 3.1 fold | –
O=C(O)/C=C(/CCc1ccc(Cl)c(Cl)c1)c1ccccc1 [PS-T7, (Z)-5-(3,4-Dichlorophenyl)-3-phenylpent-2-enoic acid] | 8 µM | 3.4 fold | –
O=C(O)/C=C(/CCc1c[nH]c2ccccc12)c1ccccc1 [PS 159, (Z)-5-(1H-Indol-3-yl)-3-phenylpent-2-enoic acid] | 9.3 µM | 3.7 fold | –
O=C(O)/C=C(/CCc1ccc(F)cc1)c1ccccc1 [PS-T3, (Z)-5-(4-Fluorophenyl)-3-phenylpent-2-enoic acid] | 41 µM | 3.3 fold | –
